ChEMBL document CHEMBL1135799, “Graphical model for estimating oral bioavailability of drugs in humans and other species from their Caco-2 permeability and in vitro liver enzyme metabolic stability rates” (J Med Chem, 2002)

Legend:
[1] = Oral bioavailability in human; format: ADME, organism-based; details: in vivo
[2] = In vitro rate of absorption observed as Caco-2 permeability in humans; format: ADME, cell-based; details: human, read-out: Papp e-6
[3] = Metabolic stability observed at 30 min after administration in human liver microsomes; format: ADME, Microsome; details: read-out: R

bioavailability [1] [%] | Papp [2] [×10⁻⁶ cm/s] | remaining at 0.5 h [3] [%] | SMILES
70 | 22.8 | 96 | NC(=O)N1c2ccccc2C=Cc2ccccc21 [CARBAMAZEPINE]
98 | 20.4 | 95 | COc1ccc2c(c1)c(CC(=O)O)c(C)n2C(=O)c1ccc(Cl)cc1 [INDOMETHACIN]
18 | 2 | 100 | OC[C@@H](O)[C@@H](O)[C@H](O)[C@H](O)CO [MANNITOL]
38 | 27 | 73 | COCCc1ccc(OCC(O)CNC(C)C)cc1 (centres undefined) [METOPROLOL]
26 | 41.9 | 29 | CC(C)NCC(O)COc1cccc2ccccc12 (centres undefined) [PROPRANOLOL]
50 | 12.8 | 71 | CC(C)(C)NC[C@H](O)COc1nsnc1N1CCOCC1 [TIMOLOL]

SMILES | bioavailability [1] [%] | Papp [2] [×10⁻⁶ cm/s] | remaining at 0.5 h [3] [%]
CC(=O)CC(c1ccccc1)c1c(O)c2ccccc2oc1=O (centres undefined) [WARFARIN] |  | 38.3 | 
